According to patent US8217041B2, “Indene derivatives, their preparation and use as medicaments” (Laboratories del Sr. Esteve, S.A., priority 2005, dated 2012):
Like-named read-outs stand apart in the source and are kept apart here.

Target: T1, 5HT6 human recombinant receptor (Homo sapiens, UniProt P50406)
T1 construct: purchased Receptor Biology; host or cells: HEK-293 cell membranes
Assay: Binding test to 5-HT6 receptors ([3H]-LSD displacement, HEK-293 cell membranes)
Conditions: for inhibition at 1 µM: compound concentration 10^−6 M; for Ki: inhibition constant by non-linear regression (EBDA/LIGAND), [3H]-LSD 2.7 nM; for inhibition at 0.1 µM: read-out: % Inhibition 10^−7 M; for inhibition at 0.01 µM: read-out: % Inhibition 10^−8 M
Description: Binding Test to 5-HT6 Receptors
Membranes of HEK-293 cells expressing the 5HT6 human recombinant receptor were supplied by Receptor Biology. In these membranes the receptor concentration is 2.18 pmol/mg protein and the protein concentration is 9.17 mg/ml. The experimental protocol follows the method of B. L. Roth et al. [B. L. Roth, S. C. Craigo, M. S. Choudhary, A. Uluer, F. J. Monsma, Y. Shen, H. Y. Meltzer, D. R. Sibley: Binding of Typical and Atypical Antipsychotic Agents to 5-Hydroxytryptamine-6 and Hydroxytriptamine-7 Receptors. The Journal of Pharmacology and Experimental Therapeutics, 1994, 268, 1403] with slight modifications. The commercial membrane is diluted (dilution 1:40) with the binding buffer: 50 mM Tris-HCl, 10 mM MgCl2, 0.5 mM EDTA (pH 7.4). The radioligand used is [^3H]-LSD at a concentration of 2.7 nM with a final volume of 200 μl. Incubation is initiated by adding 100 μl of the membrane suspension (≈22.9 μg membrane protein), and continues for 60 minutes at a temperature of 37° C. Incubation ends by fast filtration in a Harvester Brandel Cell through glass fibre filters manufactured by Schleicher & Schuell GF 3362 pre-treated with a 0.5% polyethylenimine solution. The filters are washed three times with three milliliters of Tris-HCl 50 mM pH 7.4 buffer. The filters are transferred to vials and to each vial 5 ml of liquid scintillation cocktail Ecoscint H is added. The vials are allowed to reach equilibrium for several hours before being counted in a Wallac Winspectral 1414 scintillation counter. Non-specific binding is determined in the presence of 100 μM serotonin. The tests are performed in triplicate. The inhibition constants (Ki, nM) are calculated by non-linear regression analysis using the program EBDA/LIGAND [Munson and Rodbard, Analytical Biochemistry, 1980, 107, 220].

[1] = radioligand [3H]-LSD 2.7 nM, 60 min, 37° C.
[2] = compound concentration 10^−7 M, radioligand [3H]-LSD 2.7 nM, 60 min, 37° C.
[3] = compound concentration 10^−8 M, radioligand [3H]-LSD 2.7 nM, 60 min, 37° C.

T1 sequence (P50406 whole entry): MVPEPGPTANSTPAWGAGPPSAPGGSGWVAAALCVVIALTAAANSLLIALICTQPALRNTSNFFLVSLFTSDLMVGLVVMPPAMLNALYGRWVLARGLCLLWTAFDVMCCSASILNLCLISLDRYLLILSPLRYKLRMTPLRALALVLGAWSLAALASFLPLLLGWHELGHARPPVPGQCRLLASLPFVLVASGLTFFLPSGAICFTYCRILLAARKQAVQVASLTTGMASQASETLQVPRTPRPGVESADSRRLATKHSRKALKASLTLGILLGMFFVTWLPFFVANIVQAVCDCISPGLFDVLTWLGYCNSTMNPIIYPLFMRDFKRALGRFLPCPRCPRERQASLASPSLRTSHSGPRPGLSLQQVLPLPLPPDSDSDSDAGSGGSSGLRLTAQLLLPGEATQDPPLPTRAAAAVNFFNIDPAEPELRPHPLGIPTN

Row | SMILES | inhibition at 1 µM [1] [%] | Ki [nM] | inhibition at 0.1 µM [2] [%] | inhibition at 0.01 µM [3] [%] | inhibition at 0.1 µM [%] | inhibition at 0.01 µM [%]
1 | O=S(=O)(Nc1ccc2c(c1)C(CCN1CCCC1)=CC2)c1ccc2ccccc2c1 [Example 37, N-[3-(2-Pyrrolidin-1-ylethyl)-1H-inden-5-yl]naphthalene-2-sulfonamide] | 92 | 46.3 |  |  |  | 
2 | CC1=C(CCN(C)C)c2cc(NS(=O)(=O)c3c(Cl)nc4sccn34)ccc2C1 [Example 19, N-[3-(2-Dimethylaminoethyl)-2-methyl-1H-inden-5-yl]-6-chloroimidazo[2,1-b]thiazole-5-sulfonamide] | 97 | 4.8 |  |  |  | 
3 | CN(C)CCC1=CC(C)(C)c2ccc(NS(=O)(=O)c3c(Cl)nc4sccn34)cc21 [Example 41, 6-Chloro-N-{3-[2-(dimethylamino)ethyl]-1,1-dimethyl-1H-inden-5-yl}imidazo[2,1-b] [1,3]thiazole-5-sulfonamide] |  |  | 24.5 | 9.4 |  | 
4 | CC1=C(CCN(C)C)c2cc(NS(=O)(=O)c3ccc4ccccc4c3)ccc2C1 [Example 34, N-[3-(2-Dimethylaminoethyl)-2-methyl-1H-inden-5-yl]naphthalene-2-sulfonamide] | 100 | 50.6 | 71 | 18 |  | 
5 | CC1=C(CCN2CCCC2)c2cc(NS(=O)(=O)c3ccc4ccccc4c3)ccc2C1 [Example 35, N-[2-Methyl-3-(2-pyrrolidin-1-ylethyl)-1H-inden-5-yl]naphthalene-2-sulfonamide] | 92 | 62.9 |  |  |  | 
6 | CC1=C(CCN(C)C)c2cc(Cl)ccc2C1 [Example 47, 2-(5-Chloro-2-methyl-1H-inden-3-yl)-N,N-dimethylethanamine] |  |  |  |  | 8.9 | 16.2
7 | CC1=C(CCN2CCCC2)c2cccc(NS(=O)(=O)c3ccc4ccccc4c3)c2C1 [Example 36, N-[2-Methyl-1-(2-pyrrolidin-1-ylethyl)-3H-inden-4-yl]naphthalene-2-sulfonamide] | 72 | 157 |  |  |  | 
8 | CC1=C(CCN(C)C)c2cc(S(=O)(=O)Nc3cccc4ccccc34)ccc2C1 [Example 39, N-(Naphthalene-1-yl)-3-(2-dimethylaminoethyl)-2-methyl-1H-indene-5-sulfonamide] |  |  | 51 | 25 |  | 
9 | CC1=C(CCN(C)C)c2cc(NS(=O)(=O)c3cccc4ccccc34)ccc2C1 [Example 43, N-{3-[2-(Dimethylamino)ethyl]-2-methyl-1H-inden-5-yl}naphthalene-1-sulfonamide] |  |  | 78.4 | 32 |  | 
10 | CC1=C(CCN2CCCC2)c2cc(NS(=O)(=O)c3c(Cl)nc4sccn34)ccc2C1 [Example 29, N-[3-(2-Pyrrolidin-1-ylethyl)-2-methyl-1H-inden-5-yl]-6-chloroimidazo[2,1-b]thiazole-5-sulfonamide] |  |  | 82 | 53 |  | 
11 | CC1=C(CCN2CCCC2)c2cc(NS(=O)(=O)c3sc4ccc(Cl)cc4c3C)ccc2C1 [Example 38, N-[2-Methyl-3-(2-pyrrolidin-1-ylethyl)-1H-inden-5-yl]-5-chloro-3-methylbenzo[b]thiophene-2-sulfonamide] | 100 | 20.2 |  |  |  | 
12 | CC1=C(C2CCCN(C)C2)c2cc(NS(=O)(=O)c3c(Cl)nc4sccn34)ccc2C1 (stereo not shown) [Example 46, 6-Chloro-N-[2-methyl-3-(1-methylpiperidin-3-yl)-1H-inden-5-yl]imidazo[2,1-b] [1,3]thiazole-5-sulfonamide] |  |  | 85.8 | 77.6 |  | 
13 | CC1=C(CCN2CCCC2)c2cc(NS(=O)(=O)c3ccc(N)cc3)ccc2C1 [Example 32, 4-Amino-N-[3-(2-pyrrolidin-1-ylethyl)-2-methyl-1H-inden-5-yl]benzene sulfonamide] |  |  | 63 | 26 |  | 
14 | CC1=C(CCN(C)C)c2cc(NS(=O)(=O)c3ccc4ccccc4c3)ccc2/C1=C\c1ccccc1 [Example 33, N-[1(Z)-Benzylidene-3-(2-dimethylaminoethyl)-2-methyl-1H-inden-5-yl]naphthalene-2-sulfonamide] |  | 216 |  |  |  | 
15 | CC1=C(C2CCN(C)C2)c2cc(NS(=O)(=O)c3c(Cl)nc4sccn34)ccc2C1 (stereo not shown) [Example 45, 6-Chloro-N-[2-methyl-3-(1-methylpyrrolidin-3-yl)-1H-inden-5-yl]imidazo[2,1-b] [1,3]thiazole-5-sulfonamide] |  |  | 5.4 | 7.4 |  | 
16 | CC1=C(CCO)c2cc(NS(=O)(=O)c3ccc4ccccc4c3)ccc2C1 [Example 40, N-[3-(2-Hydroxyethyl)-2-methyl-1H-inden-5-yl]naphthalene-2-sulfonamide] | 45 |  | 16 | 8 |  | 
17 | Cc1c(S(=O)(=O)Nc2ccc3c(c2)C(CCN(C)C)=CC3(C)C)sc2ccc(Cl)cc12 [Example 42, 5-Chloro-N-{3-[2-(dimethylamino)ethyl]-1,1-dimethyl-1H-inden-5-yl}-3-methylbenzo[b]thiophene-2-sulfonamide] |  |  | 2.3 | -7.5 |  | 
18 | CC1=C(CCN(C)C)c2cc(NS(=O)(=O)c3csc4ccccc34)ccc2C1 [Example 44, N-{3-[2-(Dimethylamino)ethyl]-2-methyl-1H-inden-5-yl}-1-benzothiophene-3-sulfonamide] |  |  | 88.3 | 53 |  | 
19 | CC1=C(CCN(C)C)c2cc(NS(=O)(=O)c3sc4ccc(Cl)cc4c3C)ccc2C1 [Example 20, N-[3-(2-Dimethylaminoethyl)-2-methyl-1H-inden-5-yl]-5-chloro-3-methylbenzo[b]thiophene-2-sulfonamide] |  |  | 42 | 13 |  | 
